What follows are compounds tested on TPA-induced edema in murine skin (assay: TPA-induced edema in murine skin (mouse ear), topical anti-inflammatory activity). Details: TPA 1 μg/ear, compound topically in acetone at 100 ug/ear just prior to TPA, 4 h after TPA, 6 mm punch biopsy weight.
Format: in vivo, mouse (male CF-1)
Method: Anti-inflammatory activities of the investigational compounds were studied in murine skin using the following protocol. Edema was induced by tetradecanoyl phorbol acteate (TPA) (1 μg/ear) [Marks, F., Furstenberger, G., Kownatzki, E., Prostaglandin E Mediated Stimulation of Mouse Epidermis in vivo by Divalent Cation Ionophore A23187 and by Tumor Promotor TPA, Cancer Res. 1981, 41:696-702]. Male CF-1 (Charles River) […] were used. Investigational compounds (in acetone at 100 ug/ear) were applied to one ear just prior to application of the inflammagen. Four hours after TPA application, edema was determined by comparing the weights of 6 mm punch biopsies from control (solvent) and inflammagen-treated ears. Percent inhibitions were calculated using standard equations.
In the case of `O=CCc1ccc(Cn2nnc3ccccc32)cc1` [Example 3 (Part D), 4-(benzotriazol-1'-ylmethyl)phenylacetaldehyde], the “% Inhibition” value was 46%.
`O=CCc1ccc(Cn2cnc3ccccc32)cc1` [Example 1 (Part D), 4-(benzimidazol-1'-ylmethyl)phenylacetaldehyde] was tested, and the “% Inhibition” value was 63%.
In the case of `O=CCc1ccc(Cn2ncc3ccccc32)cc1` [Example 2 (Part D), 4-(indazol-1'-ylmethyl)phenylacetaldehyde], the “% Inhibition” value was 98%.

— US5272169A, “(N-benzyl) acetaldehyde bicyclic heterocycles useful as topical antiinflammatories” (The DuPont Merck Pharmaceutical Company, priority 1993, dated 1993)
